Entries after “also recorded” stand apart in the source; their conditions may differ.

These results are taken from article PMC8244912, “An oxytocin/vasopressin-related neuropeptide modulates social foraging behavior in the clonal raider ant” (PLoS Biology, 2021).

Test [1] deals with HEK293T cells transfected with an empty vector. Nature of the test: Calcium flux, HEK293T cells transfected with empty vector. The note with it: ATP 10 μM (cell health control). It is filed as cell-based, human. The method, then:
(§1) Human embryonic kidney 293T (HEK293T) cells were cultured in DMEM supplemented with 10% FBS at 37°C in a tissue culture incubator with a humidified atmosphere containing 5% CO2. Cells were plated in 10-cm dishes, and, when they reached 60% to 70% confluency, they were transfected with a pcDNA3.3 vector containing approximately 1 ng of inotocin receptor cDNA or an empty vector as a control using Lipofectamine 2000. Cells were transfected directly into poly-D-lysine–coated 384-well plates and incubated for 48 hours at 37°C. Subsequently, cells were incubated with FLIPR Calcium 4 Assay kit dye for 1 hour in the incubator. The fluorescence (excitation, 488 nm; emission, 530 nm) of the wells was recorded using a Flex Station II 384 (Molecular Devices, San Jose, California, USA), and a dose curve of inotocin (0 to 3 μM) was applied to the wells, in sextuplicate (see below for inotocin peptide synthesis). We calculated the EC50 values using Prism (GraphPad Software version 8) nonlinear regression, 4-parameter logistic curve fit. Dose curves were repeated at least 3 times on independently prepared samples and different days. Results were consistent across replicates, and example dose curves are shown in Fig 1C and S4A Fig. Control experiments are shown in S2–S5 Figs.

In test [2] the target is O. biroi inotocin receptor (ObiroiItr_A) (Ooceraea biroi, UniProt A0A8F5LPT9). Kind of test: Calcium flux, HEK293T cells transfected with full-length inotocin receptor (FLIPR Calcium 4). Type of test: cell-based. As to conditions: for calcium response: HEK293T cells expressing full-length itcR; for LogEC50 / HillSlope: variable slope.
Sequence of O. biroi inotocin receptor (ObiroiItr_A) (A0A8F5LPT9 entry or part of it): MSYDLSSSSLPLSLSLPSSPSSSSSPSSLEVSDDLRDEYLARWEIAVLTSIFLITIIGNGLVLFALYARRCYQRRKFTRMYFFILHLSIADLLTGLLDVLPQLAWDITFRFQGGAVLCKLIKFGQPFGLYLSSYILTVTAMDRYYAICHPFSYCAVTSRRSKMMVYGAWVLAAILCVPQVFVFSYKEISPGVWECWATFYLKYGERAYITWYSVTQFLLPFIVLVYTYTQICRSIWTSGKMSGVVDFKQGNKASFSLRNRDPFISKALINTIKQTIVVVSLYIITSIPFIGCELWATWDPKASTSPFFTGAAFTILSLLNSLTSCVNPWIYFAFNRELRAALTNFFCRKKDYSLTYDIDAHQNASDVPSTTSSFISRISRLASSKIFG
Text: RNA was isolated in TRIzol using the RNeasy (Qiagen, Germantown, Maryland, USA) purification kit with DNAse I (Qiagen) on-column digestion as in [52] from a sample that contained adult ants, larvae, and pupae and reverse-transcribed into cDNA. Full-length cDNAs for the O. biroi inotocin receptor were PCR amplified with primers 5′-[…]-3′ and 5′-[…]-3′, using the Easy-A high fidelity polymerase (Agilent, Santa Clara, California, USA) to generate PCR products with 5′-Kozak consensus sequences and 3′-A overhangs. The inotocin receptor cDNAs were cloned into the pcDNA3.3 TOPO TA cloning vector (Invitrogen, Waltham, Massachusetts, USA) following manufacturer’s guidelines.
The full-length inotocin receptor cDNA sequence that was cloned and used for calcium assays is ObiroiItr_A (GenBank MW660838; for protein sequence, see S1 Fig). We also tested splice variant ObiroiItr_H (GenBank MW660845; for protein sequence, see S1 Fig), which lacks TM4-7, for calcium activity.
as §1, with “[…],” for “and a dose curve of inotocin (0 to 3 μM) was applied to the wells,”, “days.” for “days. Results were consistent across replicates, and example dose curves are shown in Fig 1C and S4A Fig. Control experiments are shown in S2–S5 Figs.”

The next test deals with HEK293 cells. The note with it: oxytocin: ref Burger, Fahrenholz et al. 1999, Ma, Hashii et al. 2013, vasopressin: ref Burger; cited from earlier work. The source says: (§2) We have edited this last sentence of the abstract to: “Inotocin signaling thereby likely contributes to behavioral individuality an ...
Test [3] deals with untransfected HEK293 cell membranes. As to conditions: ref Jasper, Harrell et al. 1995; cited from earlier work.
Text: as §2

For another test, the system named is beetle inotocin receptor. The note with it: CHO cells; ref Stafflinger, Hansen et al. 2008; cited from earlier work.
Text: as §2

The next test deals with itcR from Lasius ants. As to conditions: CHO cells; ref Koto, Motoyama et al. 2019; cited from earlier work.
Text: as §2

Take `Nc1ncnc2c1ncn2[C@@H]1O[C@H](COP(=O)(O)OP(=O)(O)OP(=O)(O)O)[C@@H](O)[C@H]1O` [ATP, reference compound]: the “calcium response” value in test [1] was “are healthy and show calcium responses”.

With `N=C(N)NCCC[C@H](NC(=O)[C@@H]1CCCN1C(=O)[C@@H]1CSSC[C@H](N)C(=O)N[C@@H](Cc2ccc(O)cc2)C(=O)N[C@@H](Cc2ccccc2)C(=O)N[C@@H](CCC(N)=O)C(=O)N[C@@H](CC(N)=O)C(=O)N1)C(=O)NCC(N)=O` [AVP], in test [2], the EC50 came out at 12.6 µM. In addition, the “calcium response” value in test [2] (listed as vasopressin) is recorded as “also elicit calcium responses; also recorded: also produced calcium transients”. The LogEC50 in test [2] (S4C Fig, AVP, SE 0.09024, 95% CI -5.083 to -4.715) is given as -4.899. Further, the HillSlope in test [2] (S4C Fig, AVP, SE 0.1917, 95% CI 0.6094 to 1.391) turned out to be 1. Further, the “calcium responses of untransfected and mock transfected HEK293 cells” value in the test with HEK293 cells is “do not show calcium”. Further, the “binding of radiolabeled peptide” value in test [3] is on record as “do not bind”.

With `CC[C@H](C)[C@@H]1NC(=O)[C@H](Cc2ccc(O)cc2)NC(=O)[C@@H](N)CSSC[C@@H](C(=O)N2CCC[C@H]2C(=O)N[C@@H](CC(C)C)C(=O)NCC(N)=O)NC(=O)[C@H](CC(N)=O)NC(=O)[C@H](CCC(N)=O)NC1=O` [oxytocin], in test [2], the EC50 amounted to 0.835 µM and the “calcium response” value was “also elicit calcium responses; also recorded: also produced calcium transients”. Also, in test [2] (S4B Fig, oxytocin, SE 0.05165, 95% CI 0.5075 to 0.7181), the HillSlope is given as 0.6128. Further, the LogEC50 in test [2] (S4B Fig, oxytocin, X data log of Molar_Oxytocin, SE 0.0661, 95% CI -6.213 to -5.944) was -6.078. In addition, in the test with beetle inotocin receptor, the “receptor response” value was “responds”. In addition, the “receptor response” value with itcR from Lasius ants is reported as “respond”. The “calcium responses of untransfected and mock transfected HEK293 cells” value in the test with HEK293 cells was “do not show calcium”. Moreover, in test [3], the “binding of radiolabeled peptide” value was “do not bind”.

“NRPCGLTCI [scrambled control peptide, scrambled version of inotocin (…) as negative control with identical amino acid composition]”: in test [2], the “calcium response” value was “No Ca^2+ influx is detected”.
